The values that follow come from paper PMC10746112, “Synthesis and Pro-Apoptotic Effects of Nitrovinylanthracenes and Related Compounds in Chronic Lymphocytic Leukaemia (CLL) and Burkitt’s Lymphoma (BL)” (Molecules, 2023).

One data set deals with PGA-1 CLL cell line. Briefly: alamarBlue cell viability assay. As to conditions: CLL cell, 24 h; for viability at 10 µM: read-out: % Viability PGA-1, 10 µM, 24 h; for IC50: read-out: PGA-1 IC50, 24 h. Background: The colour change of resazurin is a common sign of viable cells or microbes.
The next data set deals with HG-3 CLL cell line. Briefly: alamarBlue cell viability assay. As to conditions: for viability at 1 µM / viability at 10 µM / IC50: CLL cell, 24 h; for viability at 1 µM: read-out: % Viability HG-3, 1 µM, 24 h; for viability at 10 µM: read-out: % Viability HG-3, 10 µM, 24 h; for IC50: read-out: HG-3 IC50, 24 h.
A further data set deals with PGA-1 CLL cells. Briefly: Annexin V/PI apoptotic assay (FACS). It is filed as cell-based. As to conditions: PGA-1, 10 μM, 48 h. The procedure: (§1) The pro-apoptotic effects of the selected nitrovinylanthracene compounds 19a, 19g, 19i, 19l and 19m after 48 h were next determined using FITC (fluorescein isothiocyanate), Annexin V/PI (propidium iodide) staining and FACS (fluorescence-activated cell sorting) analysis to characterize the mode of cellular death induced. […] The CLL cells PGA1 and HG3 (1 × 10^6 cells/mL) were treated at 37 °C with either vehicle (1% (v/v) DMSO) or the nitrostyrene compounds 19a (10 μM, 5 μM and 1 μM) and 19g, 19i, 19l and 19m (10 μM and 1 μM) for 48 h. The cells were then harvested by centrifugation at 400× g in a temperature-controlled Sorvall centrifuge and rinsed with 0.5 mL of Ca^2+ Annexin-V-binding buffer (0.1 M HEPES, pH 7.4; 0.14 M NaCl; 25 mM CaCl2). The samples were resuspended in 50 µL FITC Annexin V (diluted 1:33 in Ca^2+ Annexin V-binding buffer), incubated on ice for 10 min (protected from light), washed with Annexin-V-binding buffer and re-suspended in 500 µL of propidium iodide (PI) solution (0.5 µg/mL). The samples were analysed within 1 h using a BD Accuri C6 flow cytometer counting 10,000 cells and analysed using the FlowJo software (FlowJo LLC, Ashland, OR, USA) package.

The next data set relates to HG-3 CLL cells. Briefly: Annexin V/PI apoptotic assay (FACS). The format is cell-based. As to conditions: 48 h. As to the method: as §1
The test system of data set [1] is MUTU-I Burkitt’s lymphoma cell line. Briefly: alamarBlue cell viability assay. As to conditions: MUTU-I, 24 h; for viability at 1 µM: read-out: % Viable Cells Remaining MUTU-1, 1 µM, 24 h; for viability at 10 µM: read-out: % Viable Cells Remaining MUTU-1, 10 µM, 24 h.
For data set [2], the system named is DG-75 Burkitt’s lymphoma cell line. Briefly: alamarBlue cell viability assay. As to conditions: Homo sapiens, DG-75, 48 h; for viability at 1 µM: read-out: % Viable Cells Remaining DG-75, 1 µM, 48 h; for viability at 10 µM: read-out: % Viable Cells Remaining DG-75, 10 µM, 48 h.
The nature of another data set: physchem. It is filed as physicochemical. As to conditions: buffer. The procedure: A preliminary HPLC stability study was performed on a representative nitrovinylanthracene compound 19m (isopropyl) in various biologically relevant pH systems (acidic pH 4 found in the stomach, basic pH 9 found in the intestine and pH 7.4 in the plasma). […] Based on the results of this stability study, the compound 19m was determined to be suitable for further preclinical investigation.

Another data set deals with MUTU-1 cells. The arrangement: method as in earlier work. As to conditions: nitrostyrenes and taxol, MTT assay, reported data; cited from earlier work. In general terms: Tetrazolium dyes change colour on reduction, which living cells bring about.
The subject of the next data set is DG-75 cells. Details: method as in earlier work. As to conditions: nitrostyrenes and taxol, MTT assay, reported data; cited from earlier work.
For data set [3], the system named is DG-75 Burkitt’s lymphoma cell line. As to conditions: human, 48 h, 1 µM.
The test system of the next data set is MUTU-I BL cells. Briefly: Annexin V/PI apoptotic assay (FACS). The format is cell-based. As to conditions: 24 h. The procedure: (§2) The chemotherapeutic drug taxol was used as a positive control. The pro-apoptotic effects of the selected nitrostyrene compounds 11g, 11h, 11i, 11j, 11k and 11l (10 μM) were determined using FITC (fluorescein isothiocyanate), Annexin V/PI (propidium iodide) staining and FACS (fluorescence-activated cell sorting) analysis to characterise the mode of cellular death induced by the synthesised compounds. Four populations were produced in this assay: Annexin-V- and PI-negative (Q4, healthy cells), Annexin-V-positive and PI-negative (Q3, early apoptosis), Annexin-V- and PI-positive (Q2, late apoptosis) and Annexin-V-negative and PI-positive (Q1, necrosis), which were easily identified and quantified. Apoptosis was assessed as % total apoptosis by a combination of early and late apoptosis (Q3 and Q2, respectively). […] The identification of compounds that can induce apoptosis in cancer cells is required in the development of potential lead structures for anticancer drugs.
(§3) The BL cells DG-75 and MUTU-I (750,000) were treated at 37 °C with either vehicle (0.1% (v/v) EtOH), […] taxol (10 μM) and incubated for 24 h (MUTU-1) or 48 h (DG-75). The CLL cells PGA1 and HG3 (1 × 10^6 cells/mL) were treated at 37 °C with either vehicle (1% (v/v) DMSO) or the nitrostyrene compounds 19a (10 μM, 5 μM and 1 μM) and 19g, 19i, 19l and 19m (10 μM and 1 μM) for 48 h. The cells were then harvested by centrifugation at 400× g in a temperature-controlled Sorvall centrifuge and rinsed with 0.5 mL of Ca^2+ Annexin-V-binding buffer (0.1 M HEPES, pH 7.4; 0.14 M NaCl; 25 mM CaCl2). The samples were resuspended in 50 µL FITC Annexin V (diluted 1:33 in Ca^2+ Annexin V-binding buffer), incubated on ice for 10 min (protected from light), washed with Annexin-V-binding buffer and re-suspended in 500 µL of propidium iodide (PI) solution (0.5 µg/mL). The samples were analysed within 1 h using a BD Accuri C6 flow cytometer counting 10,000 cells and analysed using the FlowJo software (FlowJo LLC, Ashland, OR, USA) package.

Another data set has as its system DG-75 BL cells. Briefly: Annexin V/PI apoptotic assay (FACS). It is filed as cell-based. As to conditions: 48 h. The procedure:
as §2, §3

In data set [4] the test system is DG-75 Burkitt’s lymphoma cell line. As to conditions: cited from earlier work.
Another data set deals with Bjab BL cell line. Briefly: alamarBlue cell viability assay. The format is cell-based. As to conditions: Homo sapiens, 24 h. The procedure: (§4) Cells were seeded at a density of 2.5 × 10^4 cells/well (MCF-7, MDA-MB-231 cells), 1 × 10^4 cells/well (HL-60 cells), 1–5 × 10^4 cells per well (BL MUTU-I, DG-75 cells) and 2 × 10^5 cells/well [HG-3, PGA-1 (CLL cells)], Ramos, BJAB (BL cells) (200 μL per well), in 96-well plates. Cells were treated with the desired drug concentration for the appropriate time for each cell type, and the samples were incubated as required. alamarBlue (20 μL) was then added to each well and the samples further incubated in the dark at 37 °C for 4 h. Wells containing only reagent and cell culture medium in the absence of cells were used as blank controls. Ethanol was used as a vehicle, and cells were treated with 1% ethanol (v/v) in all experiments. The 96-well plates were analysed on a fluorescence plate reader (SpectraMax Gemini, Molecular Devices) (emission and excitement wavelengths of 590 nm and 544 nm, respectively), and the fluorescence was recorded. The decrease in cell viability was then calculated with reference to the vehicle samples (100% viability). EMEM medium with the addition of alamarBlue was used as a blank. Vehicle-treated cells were considered to be 100% viable, and the viabilities of each compound was calculated accordingly. […] All biochemical assays were performed in triplicate on at least three independent occasions, and the mean values were determined.

In another data set the test system is Ramos BL cell line. Briefly: alamarBlue cell viability assay. The format is cell-based. As to conditions: Homo sapiens, 24 h. As to the method:
as §4

Data set [5] concerns HL-60 promyelocytic leukaemia cells. Briefly: alamarBlue cell viability assay. As to conditions: Homo sapiens, HL-60, 24 h.
For data set [6], the system named is MCF-7 human breast cancer cells. Briefly: alamarBlue cell viability assay. As to conditions: MCF7, 72 h.
Data set [7] relates to MUTU-I Burkitt’s lymphoma cell line. As to conditions: read-out: IC50 MUTU-I; previous work; cited from earlier work.
The subject of data set [8] is HeLa cervical cancer cells. Briefly: alamarBlue cell viability assay. As to conditions: Homo sapiens, 24 h.
Where [9] appears, read: 10 µM, total (early + late) apoptosis.

Some results are limits rather than exact numbers.

Regarding `CCc1c2ccccc2c(/C=C/[N+](=O)[O-])c2ccccc12` [Compound 19l, (E)-9-Ethyl-10-(2-Nitrovinyl)Anthracene], the viability at 10 µM in the data set with PGA-1 CLL cell line was 2.7%; in the data set with HG-3 CLL cell line, 0.5%; in [1] it was 0.5%; in data set [2], 4.04%. Moreover, the IC50 with PGA-1 CLL cell line was 1300 nM; in the data set with HG-3 CLL cell line, 5400 nM. For the same compound, the viability at 1 µM in the data set with HG-3 CLL cell line worked out at 78%; in data set [1] it was 72.7%; in data set [2], 104%. Further, the total apoptosis stood at 82% in the data set with PGA-1 CLL cells and 74% in the data set with HG-3 CLL cells (HG-3, 10 μM).
Consider `CC(C)c1c2ccccc2c(/C=C/[N+](=O)[O-])c2ccccc12` [Compound 19m, (E)-9-Isopropyl-10-(2-Nitrovinyl)Anthracene], for which the viability at 10 µM in the data set on PGA-1 CLL cell line is 2.9%; in the data set on HG-3 CLL cell line, 0.9%; in [1], 0.21%; in data set [2], 28.1%. Moreover, the half-inhibitory concentration (IC50) stood at 9100 nM in the data set with PGA-1 CLL cell line and 700 nM in the data set with HG-3 CLL cell line. The viability at 1 µM with HG-3 CLL cell line amounted to 82%; in [1], 78.4%; in [2] it was 85.2%. Further, in the data set with HG-3 CLL cell line (ratio of IC50 values), the “fold greater response (IC50) in HG-3 compared to PGA-1 cells” value was 13 fold. Moreover, the half-life in “physchem” (pH 4) was greater than 24 h; in the data set “physchem” (pH 7.4) it was greater than 24 h; in “physchem” (pH 9) it was 19 h. Also, the fraction remaining at 24 h in “physchem” (pH 4) worked out at 55%; in “physchem” (pH 7.4), 56%; in “physchem” (pH 9), 42%. For the same compound, the total apoptosis in the data set with PGA-1 CLL cells is reported as 74%; with HG-3 CLL cells (HG-3, 1 μM), 25%; in the data set with HG-3 CLL cells (HG-3, 10 μM) it was 69%.
Turning to `CC(=O)O[C@H]1C(=O)[C@@]2(C)[C@H]([C@H](OC(=O)c3ccccc3)[C@]3(O)C[C@H](OC(=O)[C@H](O)[C@@H](NC(=O)c4ccccc4)c4ccccc4)C(C)=C1C3(C)C)[C@]1(OC(C)=O)CO[C@@H]1C[C@@H]2O` [Taxol, taxol, reference compound], the concentration for half-maximal inhibition (IC50) is 300 nM with MUTU-1 cells; 1320 nM in the data set on DG-75 cells; 1320 nM in data set [4] (read-out: IC50 DG-75, previous work); 320 nM in [7]. For the same compound, in data set [3], the “% Viable Cells Remaining DG-75” value is recorded as 90.0%. Further, the “MUTU-I Apoptosis (%)” value in the data set with MUTU-I BL cells (1 µM) came out at 62.8%; in the data set on MUTU-I BL cells (setting [9]), 87.3%; in the data set on MUTU-I BL cells (10 µM, total (early + late) apoptosis, listed as taxol), 87%. In addition, the “DG-75 Apoptosis (%)” value in the data set on DG-75 BL cells (1 µM) was determined as 20.7%; with DG-75 BL cells (setting [9]), 72.8%. Further, in data set [4], the “% Viable Cells Remaining DG-75 48 h 1 µM” value was greater than 90%. For the same compound, the viability at 1 µM came out at 97.6% with Bjab BL cell line (read-out: % Viable Cells Remaining Bjab 24 h 1 µM); 69.3% with Ramos BL cell line (read-out: % Viable Cells Remaining Ramos 24 h 1 µM); 97.6% in [5] (read-out: % Viable Cells Remaining HL60 24 h 1 µM); 32% in data set [1]; 101% in [6] (read-out: % Viable Cells Remaining MCF-7 72 h 1 µM); 86.9% in data set [8] (read-out: % Viable Cells Remaining HeLa 24 h 1 µM). Moreover, the viability at 1 µM in data set [2] was greater than 90%. Moreover, the viability at 10 µM in the data set on Bjab BL cell line (read-out: % Viable Cells Remaining Bjab 24 h 10 µM) amounted to 80.2%; in the data set on Ramos BL cell line (read-out: % Viable Cells Remaining Ramos 24 h 10 µM) it was 24.9%; in data set [5] (read-out: % Viable Cells Remaining HL60 24 h 10 µM) it was 69.7%; in [1] it was 7%; in [6] (read-out: % Viable Cells Remaining MCF-7 72 h 10 µM), 75%; in data set [8] (read-out: % Viable Cells Remaining HeLa 24 h 10 µM), 48.4%. In data set [2], the viability at 10 µM stood at 40%.

In general, IC50 refers to the concentration that inhibits the measured activity by half. For orientation: half-life means how long it takes for the measured level to halve. A low value points to rapid decline. In general, amount remaining refers to what is left of the initial amount, in per cent. A higher amount remaining goes with less turnover.
